{"source": "patent US10259779B2", "about": "(WAYNE STATE UNIVERSITY, priority 2016, dated 2019)", "key": {"recombinant HDAC8": {"target": "T1, recombinant HDAC8 (Homo sapiens, UniProt Q9BY41)", "T1 construct": "purchased BPS Bioscience", "T1 sequence (Q9BY41 1-377)": "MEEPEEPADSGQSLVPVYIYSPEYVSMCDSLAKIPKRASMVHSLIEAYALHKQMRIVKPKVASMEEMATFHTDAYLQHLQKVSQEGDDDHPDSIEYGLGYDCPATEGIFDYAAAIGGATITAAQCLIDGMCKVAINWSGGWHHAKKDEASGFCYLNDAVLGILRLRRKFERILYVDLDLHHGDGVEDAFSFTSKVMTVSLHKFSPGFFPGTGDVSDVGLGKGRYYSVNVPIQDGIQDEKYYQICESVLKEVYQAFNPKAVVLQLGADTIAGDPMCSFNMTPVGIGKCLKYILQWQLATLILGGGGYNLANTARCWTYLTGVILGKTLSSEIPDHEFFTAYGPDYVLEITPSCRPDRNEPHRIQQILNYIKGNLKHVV", "experiment": "Recombinant HDAC8 inhibition (HDAC-Glo)", "format": "biochemical", "settings": "read-out: Deacetylase activity (%) HDAC8", "experimental": "Inhibitory activity with HDAC8 was measured using the following procedure. In a half area 96-well white opaque plate, recombinant HDAC8 (75 ng, BPS Bioscience) was incubated in HDAC-Glo™ buffer (39 μL) with inhibitor in DMSO (1 μL), or DMSO alone (1 μL) as a control, for 15 minutes at room temperature. HDAC-Glo™ reagent (10 μL) was added to each reaction and incubated for 30 min at room temperature. Luminescent signal was measured 30 minutes after adding the substrate reagent using a Geniosplus Fluorimeter (Tecan) at optimal gain. To determine IC50, the luminescent signal was first background corrected with the signal from a background control reaction where no HDAC8 enzyme was added."}, "HDAC2": {"target": "HDAC2 (Homo sapiens, UniProt Q92769)", "sequence (Q92769 whole entry)": "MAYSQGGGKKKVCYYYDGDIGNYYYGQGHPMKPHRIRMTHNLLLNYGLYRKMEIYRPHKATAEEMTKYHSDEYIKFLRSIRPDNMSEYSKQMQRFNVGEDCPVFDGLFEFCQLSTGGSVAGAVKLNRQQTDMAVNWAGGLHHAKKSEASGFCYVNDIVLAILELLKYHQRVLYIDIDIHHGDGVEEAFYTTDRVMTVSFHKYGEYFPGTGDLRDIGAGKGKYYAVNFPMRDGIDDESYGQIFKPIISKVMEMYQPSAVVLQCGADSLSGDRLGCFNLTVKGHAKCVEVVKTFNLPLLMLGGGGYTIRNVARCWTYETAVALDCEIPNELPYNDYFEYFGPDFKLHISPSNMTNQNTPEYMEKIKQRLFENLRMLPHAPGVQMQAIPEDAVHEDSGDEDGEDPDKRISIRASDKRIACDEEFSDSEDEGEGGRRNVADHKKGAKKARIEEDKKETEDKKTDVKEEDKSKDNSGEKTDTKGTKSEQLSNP", "experiment": "ELISA-based HDAC activity assay, HDAC2", "settings": "read-out: Deacetylase activity (%) HDAC2"}, "in vitro": {"experiment": "in vitro", "settings": "human, Jurkat cells (leukemia cell line)"}, "HDAC6 [1]": {"target": "T2, HDAC6 (Homo sapiens, UniProt Q9UBN7)", "T2 sequence (Q9UBN7 1-1215)": "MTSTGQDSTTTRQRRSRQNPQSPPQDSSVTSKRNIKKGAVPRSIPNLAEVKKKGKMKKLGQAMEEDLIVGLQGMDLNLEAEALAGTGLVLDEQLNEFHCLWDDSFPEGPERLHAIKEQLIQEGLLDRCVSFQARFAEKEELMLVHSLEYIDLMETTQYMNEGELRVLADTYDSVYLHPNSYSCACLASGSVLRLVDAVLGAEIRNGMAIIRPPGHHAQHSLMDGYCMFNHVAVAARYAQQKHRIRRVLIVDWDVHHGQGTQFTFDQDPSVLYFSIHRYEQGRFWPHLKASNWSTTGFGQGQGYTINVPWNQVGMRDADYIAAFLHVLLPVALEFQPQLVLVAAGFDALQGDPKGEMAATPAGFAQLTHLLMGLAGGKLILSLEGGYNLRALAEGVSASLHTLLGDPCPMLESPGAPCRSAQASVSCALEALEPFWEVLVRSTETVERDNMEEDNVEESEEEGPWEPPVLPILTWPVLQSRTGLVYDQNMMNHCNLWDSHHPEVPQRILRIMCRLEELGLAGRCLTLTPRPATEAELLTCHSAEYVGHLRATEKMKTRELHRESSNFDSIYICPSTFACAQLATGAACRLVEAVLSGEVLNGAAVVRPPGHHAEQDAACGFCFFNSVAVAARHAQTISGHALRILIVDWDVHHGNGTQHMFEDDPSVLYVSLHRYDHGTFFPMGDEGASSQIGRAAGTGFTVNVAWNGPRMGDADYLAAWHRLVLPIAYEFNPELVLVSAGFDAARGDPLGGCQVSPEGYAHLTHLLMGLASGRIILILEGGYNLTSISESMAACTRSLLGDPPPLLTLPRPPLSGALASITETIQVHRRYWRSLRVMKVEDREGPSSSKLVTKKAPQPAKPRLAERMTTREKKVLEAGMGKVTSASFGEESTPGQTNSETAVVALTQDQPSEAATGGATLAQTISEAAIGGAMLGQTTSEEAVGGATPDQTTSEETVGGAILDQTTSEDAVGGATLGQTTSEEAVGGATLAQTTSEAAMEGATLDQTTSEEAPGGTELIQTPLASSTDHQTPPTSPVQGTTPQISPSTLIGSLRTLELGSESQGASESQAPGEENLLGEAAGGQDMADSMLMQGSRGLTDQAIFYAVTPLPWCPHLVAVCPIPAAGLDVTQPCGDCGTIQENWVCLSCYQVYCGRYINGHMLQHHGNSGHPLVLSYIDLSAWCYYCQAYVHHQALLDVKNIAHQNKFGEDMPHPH", "experiment": "ELISA-based HDAC activity assay, HDAC6", "settings": "read-out: Deacetylase activity (%) HDAC6"}, "HDAC1 [2]": {"target": "T3, HDAC1 (Homo sapiens, UniProt Q13547)", "T3 sequence (Q13547 whole entry)": "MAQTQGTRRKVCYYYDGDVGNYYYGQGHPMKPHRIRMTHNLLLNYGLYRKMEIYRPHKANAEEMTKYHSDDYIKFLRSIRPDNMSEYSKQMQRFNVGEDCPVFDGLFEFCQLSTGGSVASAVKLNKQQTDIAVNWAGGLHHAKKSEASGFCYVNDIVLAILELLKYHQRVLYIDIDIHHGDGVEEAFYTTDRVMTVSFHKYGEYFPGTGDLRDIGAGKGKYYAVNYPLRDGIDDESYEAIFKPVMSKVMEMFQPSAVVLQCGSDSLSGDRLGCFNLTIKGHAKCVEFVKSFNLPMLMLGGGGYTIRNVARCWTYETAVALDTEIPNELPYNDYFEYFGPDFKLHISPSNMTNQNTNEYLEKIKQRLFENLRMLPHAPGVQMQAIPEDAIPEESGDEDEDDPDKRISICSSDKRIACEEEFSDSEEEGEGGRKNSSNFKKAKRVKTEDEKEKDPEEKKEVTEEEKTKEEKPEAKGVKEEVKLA", "experiment": "ELISA-based HDAC activity assay, HDAC1", "settings": "read-out: Deacetylase activity (%) HDAC1"}, "U937 cells": {"tested_on": "U937 cells", "experiment": "In vitro cell growth inhibition, MTT assay, U937", "format": "cell-based", "settings": "U937 cell line"}, "[3]": {"tested_on": "HDAC proteins in HeLa cell lysates", "experiment": "Global HDAC inhibition with HeLa cell lysates (HDAC-Glo I/II substrate)", "format": "biochemical", "settings": "Hela Lysate", "experimental": "HDAC activity was measured using the commercially available HDAC-Glo™ I/II substrate (Promega).\nLysates were prepared according to the reported procedure.^28 HeLa-S3 cells (purchased from Biovest) were lysed in lysis buffer (1×10^9 cells in 10 mL lysis buffer; 50 mM Tris-HCl, pH 8.0, 10% glycerol, 150 mM NaCl, 0.5% Triton X-100, and 1× protease inhibitor cocktail (GenDEPOT)) with rotation at 4° C. for 30 min. Cell debris was removed by centrifugation at 12000 rpm at 4° C. for 30 min. Protein concentration of the supernatant was determined using Bio-Rad protein assay (BioRad, Bradford reagent). Lysates were stored at −80° C.\nTo measure global HDAC inhibition, HeLa cell lysates (1 μg total protein) were mixed with HDAC-Glo™ buffer in polystyrene 96-well half area white plate (Corning) to a final volume of 12 μL, followed by addition of inhibitors in DMSO (0.5 μL) and incubation for 15 min at room temperature without rocking. An uninhibited control reaction was also included that contained DMSO (0.5 μL). Finally, deacetylase activity was measured using the HDAC-Glo™ assay kit (Promega) as per the manufacturer's protocol. Specifically, the HDAC-Glo™ substrate (1 mL) and developer ([…]) were first premixed to form the HDAC-Glo™ reagents. Then, to monitor deacetylase activity, HDAC-Glo™ reagent (5 μL) and HDAC-Glo™ buffer (7.5 μL) were added to each well (25 μL total volume) and incubated for 35 min at room temperature without rocking. The deacetylase activity was measured as luminescent signal using a GeniosPlus Fluorimeter (Tecan) at optimal gain. The concentrations of inhibitors reported in the dose-dependent studies (Table 2) are final concentrations after addition of HDAC-Glo™ reagent HDAC-Glo™ buffer."}, "HDAC3": {"target": "HDAC3 (Homo sapiens, UniProt O15379)", "sequence (O15379 whole entry)": "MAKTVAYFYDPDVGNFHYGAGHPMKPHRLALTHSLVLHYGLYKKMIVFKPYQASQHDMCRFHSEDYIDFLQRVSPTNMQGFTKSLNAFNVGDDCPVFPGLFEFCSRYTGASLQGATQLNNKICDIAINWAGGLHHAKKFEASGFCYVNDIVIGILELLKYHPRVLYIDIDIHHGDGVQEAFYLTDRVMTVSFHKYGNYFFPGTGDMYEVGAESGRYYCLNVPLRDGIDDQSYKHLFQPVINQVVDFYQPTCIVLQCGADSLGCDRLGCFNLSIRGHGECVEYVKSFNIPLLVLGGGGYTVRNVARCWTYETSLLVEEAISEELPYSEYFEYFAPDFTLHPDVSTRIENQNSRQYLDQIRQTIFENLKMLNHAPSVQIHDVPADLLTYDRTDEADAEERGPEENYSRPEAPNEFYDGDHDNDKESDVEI", "sequence (Q9Y618 whole entry partner)": "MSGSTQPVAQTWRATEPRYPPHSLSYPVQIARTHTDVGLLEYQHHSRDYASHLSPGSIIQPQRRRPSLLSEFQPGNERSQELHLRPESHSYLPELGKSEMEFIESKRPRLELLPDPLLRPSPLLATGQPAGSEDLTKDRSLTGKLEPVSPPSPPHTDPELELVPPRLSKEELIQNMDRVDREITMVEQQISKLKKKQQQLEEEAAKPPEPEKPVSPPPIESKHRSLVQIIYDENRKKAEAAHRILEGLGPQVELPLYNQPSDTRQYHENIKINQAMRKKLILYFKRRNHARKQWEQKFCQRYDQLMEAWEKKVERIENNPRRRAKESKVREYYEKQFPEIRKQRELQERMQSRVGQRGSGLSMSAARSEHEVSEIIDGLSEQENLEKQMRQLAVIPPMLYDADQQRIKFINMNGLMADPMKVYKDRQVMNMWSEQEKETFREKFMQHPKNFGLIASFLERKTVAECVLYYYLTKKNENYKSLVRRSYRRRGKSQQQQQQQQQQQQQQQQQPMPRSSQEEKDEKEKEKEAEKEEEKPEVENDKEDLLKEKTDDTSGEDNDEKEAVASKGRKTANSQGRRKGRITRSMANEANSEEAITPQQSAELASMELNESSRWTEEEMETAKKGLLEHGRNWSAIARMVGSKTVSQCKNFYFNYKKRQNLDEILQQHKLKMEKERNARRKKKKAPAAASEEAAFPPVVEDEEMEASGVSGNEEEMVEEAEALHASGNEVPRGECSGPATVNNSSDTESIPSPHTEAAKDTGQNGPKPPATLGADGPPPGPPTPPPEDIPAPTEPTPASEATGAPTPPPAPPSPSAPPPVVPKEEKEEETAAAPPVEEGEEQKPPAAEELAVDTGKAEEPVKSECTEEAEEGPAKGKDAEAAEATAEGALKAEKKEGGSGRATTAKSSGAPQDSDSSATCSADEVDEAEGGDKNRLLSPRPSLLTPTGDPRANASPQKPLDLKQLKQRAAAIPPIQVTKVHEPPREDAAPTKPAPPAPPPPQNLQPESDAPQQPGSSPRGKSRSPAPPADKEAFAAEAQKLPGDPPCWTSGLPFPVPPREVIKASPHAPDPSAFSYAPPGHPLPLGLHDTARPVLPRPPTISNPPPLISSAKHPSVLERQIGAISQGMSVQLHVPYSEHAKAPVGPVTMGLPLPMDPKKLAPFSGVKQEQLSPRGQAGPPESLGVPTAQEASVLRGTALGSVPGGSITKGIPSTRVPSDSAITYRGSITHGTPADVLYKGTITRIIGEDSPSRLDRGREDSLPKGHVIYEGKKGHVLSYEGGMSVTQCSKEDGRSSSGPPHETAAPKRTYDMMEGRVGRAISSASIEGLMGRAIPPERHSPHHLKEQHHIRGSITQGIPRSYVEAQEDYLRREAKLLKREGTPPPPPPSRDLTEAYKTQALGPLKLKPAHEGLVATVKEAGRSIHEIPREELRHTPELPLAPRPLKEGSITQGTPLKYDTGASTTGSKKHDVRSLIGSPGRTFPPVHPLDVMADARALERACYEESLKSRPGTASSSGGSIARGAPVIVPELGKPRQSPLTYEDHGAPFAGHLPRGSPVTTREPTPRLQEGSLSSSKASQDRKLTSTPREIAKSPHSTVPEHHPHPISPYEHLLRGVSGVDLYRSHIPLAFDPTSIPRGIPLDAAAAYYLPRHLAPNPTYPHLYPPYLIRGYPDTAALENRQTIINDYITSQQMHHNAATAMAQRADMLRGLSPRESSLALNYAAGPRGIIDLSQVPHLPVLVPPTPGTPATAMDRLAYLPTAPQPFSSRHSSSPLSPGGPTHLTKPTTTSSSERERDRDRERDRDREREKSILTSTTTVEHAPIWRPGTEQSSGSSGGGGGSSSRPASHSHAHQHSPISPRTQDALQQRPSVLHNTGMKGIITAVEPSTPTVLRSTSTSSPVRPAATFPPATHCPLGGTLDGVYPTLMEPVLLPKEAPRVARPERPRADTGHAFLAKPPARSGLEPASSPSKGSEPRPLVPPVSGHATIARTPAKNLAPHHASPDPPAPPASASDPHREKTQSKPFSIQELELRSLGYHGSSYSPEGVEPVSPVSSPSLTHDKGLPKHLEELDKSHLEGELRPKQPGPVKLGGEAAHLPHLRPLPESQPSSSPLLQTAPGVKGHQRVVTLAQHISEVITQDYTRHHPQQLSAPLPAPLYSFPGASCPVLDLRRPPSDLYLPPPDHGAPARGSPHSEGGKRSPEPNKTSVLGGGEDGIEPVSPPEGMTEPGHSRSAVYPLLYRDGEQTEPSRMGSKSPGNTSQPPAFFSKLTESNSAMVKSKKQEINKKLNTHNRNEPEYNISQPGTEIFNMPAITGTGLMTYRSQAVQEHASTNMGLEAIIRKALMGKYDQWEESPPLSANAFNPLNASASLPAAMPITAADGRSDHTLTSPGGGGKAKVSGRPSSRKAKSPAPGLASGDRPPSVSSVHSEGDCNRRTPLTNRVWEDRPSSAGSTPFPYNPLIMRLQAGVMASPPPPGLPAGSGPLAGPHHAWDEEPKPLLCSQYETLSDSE", "experiment": "ELISA-based HDAC activity assay, HDAC3", "settings": "read-out: Deacetylase activity (%) HDAC3"}, "HDAC1 [4]": {"target": "T3, HDAC1", "settings": "single concentration 1 μM; cited from earlier work"}, "HDAC6 [5]": {"target": "T2, HDAC6", "settings": "single concentration 1 μM; cited from earlier work"}, "[6]": {"tested_on": "acetyl-histone H3 (HDAC1, 2, 3 substrate) in U937 cells", "experiment": "In cellulo selectivity testing, western blot of acetyl-histone H3", "format": "cell-based", "settings": "18 hours, SAHA 5 μM"}, "[7]": {"tested_on": "acetyl-α-tubulin (HDAC6 substrate) in U937 cells", "experiment": "In cellulo selectivity testing, western blot of acetyl-α-tubulin", "format": "cell-based", "settings": "18 hours, SAHA 5 μM, 1f 20-60 μM, compared to DMSO control"}, "HDAC6 [8]": {"target": "T2, HDAC6", "settings": "literature ref 55; cited from earlier work"}}, "data": [{"smiles": "CCCCC(CCCC(=O)Nc1ccccc1)CCC(=O)NO", "note": "(racemic) [Compound 1c, 4-butyl-N^1-hydroxy-N^8-phenyloctanediamide]", "values": [{"measurement": "activity at 0.1 µM", "setting": "recombinant HDAC8; 1.0 × 10^−7 M", "result": "41 ± 5", "unit": "%"}, {"measurement": "activity at 0.0125 µM", "setting": "recombinant HDAC8; 1.25 × 10^−8 M", "result": "84 ± 1", "unit": "%"}, {"measurement": "activity at 0.2 µM", "setting": "recombinant HDAC8; 2.0 × 10^−7 M", "result": "28 ± 4", "unit": "%"}, {"measurement": "activity at […]", "setting": "recombinant HDAC8; 2.5 × 10^−8 M", "result": "74 ± 3", "unit": "%"}, {"measurement": "activity at 0.05 µM", "setting": "recombinant HDAC8; 5.0 × 10^−8 M", "result": "61 ± 7", "unit": "%"}, {"measurement": "activity at 3.5 µM", "setting": "HDAC2", "result": "81 ± 5", "unit": "%"}, {"measurement": "activity at 7 µM", "setting": "HDAC2", "result": "71 ± 2", "unit": "%"}, {"measurement": "activity at 14 µM", "setting": "HDAC2", "result": "57 ± 1", "unit": "%"}, {"measurement": "activity at 28 µM", "setting": "HDAC2", "result": "43 ± 2", "unit": "%"}, {"measurement": "activity at 56 µM", "setting": "HDAC2", "result": "18 ± 10", "unit": "%"}, {"measurement": "activity at […]", "setting": "HDAC2", "result": "87 ± 1", "unit": "%"}, {"measurement": "viability at 44 h, 1 µM", "setting": "in vitro", "result": "98 ± 6", "unit": "%"}, {"measurement": "viability at 44 h, 10 µM", "setting": "in vitro", "result": "62 ± 16", "unit": "%"}, {"measurement": "activity at 0.05 µM", "setting": "HDAC6 [1]", "result": "61 ± 6", "unit": "%"}, {"measurement": "activity at 0.1 µM", "setting": "HDAC6 [1]", "result": "46 ± 9", "unit": "%"}, {"measurement": "activity at 0.2 µM", "setting": "HDAC6 [1]", "result": "39 ± 5", "unit": "%"}, {"measurement": "activity at 0.4 µM", "setting": "HDAC6 [1]", "result": "23 ± 3", "unit": "%"}, {"measurement": "activity at […]", "setting": "HDAC6 [1]", "result": "70 ± 6", "unit": "%"}, {"measurement": "activity at 3.5 µM", "setting": "HDAC1 [2]", "result": "81 ± 1", "unit": "%"}, {"measurement": "activity at 7 µM", "setting": "HDAC1 [2]", "result": "67 ± 2", "unit": "%"}, {"measurement": "activity at 14 µM", "setting": "HDAC1 [2]", "result": "53 ± 3", "unit": "%"}, {"measurement": "activity at 28 µM", "setting": "HDAC1 [2]", "result": "35 ± 1", "unit": "%"}, {"measurement": "activity at 56 µM", "setting": "HDAC1 [2]", "result": "19 ± 1", "unit": "%"}, {"measurement": "EC50", "setting": "U937 cells", "result": 34, "unit": "µM"}, {"measurement": "Deacetylase activity (%)", "setting": "[3]; 3.0 × 10^−5 M", "result": "69 ± 2", "unit": "%"}, {"measurement": "Deacetylase activity (%)", "setting": "[3]; 6.0 × 10^−5 M", "result": "44 ± 4", "unit": "%"}, {"measurement": "Deacetylase activity (%)", "setting": "[3]; […] 10^−4 M", "result": "24 ± 1", "unit": "%"}, {"measurement": "Deacetylase activity (%)", "setting": "[3]; […] 10^−5 M", "result": "88 ± 1", "unit": "%"}, {"measurement": "Deacetylase activity (%)", "setting": "[3]; […] 10^−6 M", "result": "97 ± 2", "unit": "%"}, {"measurement": "activity at 3.5 µM", "setting": "HDAC3", "result": "79 ± 3", "unit": "%"}, {"measurement": "activity at 7 µM", "setting": "HDAC3", "result": "79 ± 3", "unit": "%"}, {"measurement": "activity at 14 µM", "setting": "HDAC3", "result": "64 ± 2", "unit": "%"}, {"measurement": "activity at 28 µM", "setting": "HDAC3", "result": "48 ± 5", "unit": "%"}, {"measurement": "activity at 56 µM", "setting": "HDAC3", "result": "25 ± 5", "unit": "%"}]}, {"smiles": "O=C(CCCCCCC(=O)Nc1ccccc1)NO", "note": "[SAHA, suberoylamide hydroxamic acid]", "values": [{"measurement": "Deacetylase activity (%) HDAC1", "setting": "HDAC1 [4]", "result": "8.9 ± 0.1", "unit": "%"}, {"measurement": "viability at 44 h, 10 µM", "setting": "in vitro", "result": "5 ± 3", "unit": "%"}, {"measurement": "Deacetylase activity (%) HDAC6", "setting": "HDAC6 [5]", "result": "7.9 ± 1.6", "unit": "%"}, {"measurement": "levels of acetyl-histone H3 (AcH3), western blot", "setting": "[6]", "result": "increases levels"}, {"measurement": "levels of acetyl-α-tubulin (AcTub), western blot", "setting": "[7]", "result": "increases levels"}]}, {"smiles": "CCCC(CCC)C(=O)NO", "note": "[Valpropylhydroxamic acid]", "values": [{"measurement": "fold selectivity for HDAC6 and 8 against HDAC1, 2, and 3 (reported)", "setting": "HDAC6 [8]", "result": "9-17 fold"}]}]}
